Like-named read-outs stand apart in the source and are kept apart here.
Assays:
male Sprague-Dawley rats = test: In vivo acute toxicity; design: species or system rat
Experimental: Compound 1 (aq., 12.5 mM) was injected intravenously into 4 male rats (Sprague Dawley Crl:SD, 315-340 g) at a dosage of 0.02 mmol/kg following anaesthesia with 5% isoflurane. […] Body weight measurements and hematology were performed on days −1, 7 and 14. Compound 6 (aq., 6.25 mM) was injected intravenously into 8 male rats (Sprague Dawley Crl:SD, 327-365 g) at a dosage of 0.01 mmol/kg following anaesthesia with 5% isoflurane. […] Body weight measurements and hematology were performed on days −1, 1 and 8. Following euthanasia, the heart, lungs, liver, kidneys, spleen, thyroid and pituitary glands were grossly examined during necropsy, and samples of the brain, heart (compound 1 only), lungs, liver, kidneys, spleen and thymus (compound 1 only) were microscopically evaluated during histopathological examination.
The acute toxicities of 1 and 6 were studied in 8 week old male Sprague-Dawley rats. The toxicity of 1 was studied over a period of 14 days, in four rats; while the toxicity of 6 was studied over a period of 8 days, in 8 rats. Compound 1 was injected intravenously at a dosage of 0.02 mmol/kg (c=12.5 mM), while 6 was injected at a dosage of 0.01 mmol/kg (c=6.25 mM). These dosages were chosen because the dosage for the only Mn^II-based compound approved in North America, Teslascan, was 0.005 mmol/kg; and the inventors were anticipating a […] degree of toxicity.

[1] = Relaxivity measurements (T1 and T2 relaxation times, Bruker minispec mq60/mq20); assay type: physicochemical; conditions: aqueous solution, 37° C.
Experimental: T1 and T2 relaxation times were measured at the STTARR Innovation Centre in Toronto, Canada using a Bruker minispec mq60, and at the Bruker Showroom in Milton, Canada using a Bruker minispec mq20. Measurements were carried out on a series of 6 aqueous dilutions between 0-5 mM.
The T1 and T2 relaxation times of the 8 soluble, pure complexes were measured in aqueous solution at 37° C., at both 20 and 60 MHz.

[2] = system: primary rat renal proximal tubule epithelial cells (RPTECs); test: In vitro toxicity, MTT assay; assay type: cell-based; conditions: for cytotoxicity: 10 h time point, compared with 4 h; for IC50: rat RPTECs, MTT, read-out: Inhibitory concentration IC50
Experimental: Gadodiamide (Selleckchem, Lot #02) was used as the reference compound. It is one of the 8 Gd(III)-based MRI agents approved for use in Canada (trade name: Omniscan™).
The test articles and reference compound were weighed and dissolved in the incubation medium to give the highest test concentration of 30 mM. The solution was filter sterilized and diluted to the remaining test concentrations of 10 mM, 3.3 mM, 1.1 mM, 0.36 mM, 0.12 mM and 0.04 mM.
Cryopreserved primary rat renal proximal tubule epithelial cells (RPTECs) (ScienCell Research Laboratories, Carlsbad, Calif.) were used for the study. The rat RPTECs were thawed completely at 37° C., and transferred to epithelial cell medium (ScienCell Research Laboratories, Carlsbad, Calif.) followed by plating in poly-L-lysine coated 96-well plates. The RPTECs were allowed to recover and grow in a cell culture incubator (37° C., humidified atmosphere of 5% carbon dioxide and 95% air) for 3 additional days with a medium change every alternate day.
Following 3 days of plating, the RPTECs were washed once with serum free epithelial cell medium (ScienCell Research Laboratories, Carlsbad, Calif.) followed by treatment with the test, reference or control articles for 2, 4, 10 or 24 h. All treatments were performed in triplicate.
Cellular viability and metabolic activity were assessed by using the 3-(4,5-dimethylthiazol-2-yl)-2,5-diphenyl tetrazolium bromide (MTT) uptake assay. A 10× stock of the MTT dye was prepared in phosphate buffered saline (PBS). An aliquot of dye was added 2 hrs before the intended time point to achieve a final 1× concentration, after which incubation (37° C., humidified atmosphere of 5% carbon dioxide and 95% air) continued until the desired time point. For the 2 hr time point, the aliquot of dye was added immediately after the test articles. Following incubation, all media was aspirated from the wells and the plates were allowed to dry. The resulting formazan crystals were dissolved in DMSO using an orbital shaker, and the absorbance at 570 nm was measured using a Victor ^3V multilabel plate reader (reference wavelength=650 nm).
The inhibitory concentration (IC50, the concentration resulting in 50% toxicity) was determined by plotting log concentration vs. relative viability, followed by non-linear regression of the curve using Graph Pad Prism 5.0.
An in vitro toxicity study was performed in order to evaluate the cytotoxic potential of several of the agents in primary rat renal proximal tubule epithelial cells (RPTECs), prior to performing in vivo studies. The Mn^II and Gd^III complexes of L1, L2 and L6 (complexes 1, 2, 5, and 7-9) were evaluated at seven concentrations (30 mM, 10 mM, 3.3 mM, 1.1 mM, 0.36 mM, 0.12 mM and 0.04 mM) after 2, 4, 10 and 24 hours of treatment in rat RPTECs. The MTT assay was used as an indicator of viability. The nephrotoxic potential of the test articles was compared to the toxicity observed in the presence of the approved agent Gadodiamide. The results are summarized in Table 4, where the inhibitory concentration (IC50, the concentration resulting in 50% toxicity) was determined by plotting log concentration vs. relative viability.

## CC1=NCCNCCNCCN=C(C)c2cccc1n2.O.O.[Cl-].[Cl-].[Mn+2] [Compound 1, [MnL1Cl2].2H2O]
Male Sprague-Dawley rats; 0.02 mmol/kg iv, 4 rats, 14 days
  acute toxicity (overall): minimally- to non-acutely toxic
Male Sprague-Dawley rats; at the studied dosages
  toxicity (summary of the in vivo studies): negligible toxicity
[1]; 20 MHz
  r1 relaxivity: 3.78 s⁻¹ mM⁻¹
[1]; 60 MHz
  r1 relaxivity: 2.76 s⁻¹ mM⁻¹
[2]; 2 and 4 h of treatment, 0.04-30 mM
  nephrotoxicity: did not show significant nephrotoxicity
[2]
  cytotoxicity: did not display significant cytotoxicity
[2]; 24 h of treatment
  nephrotoxic effects: exhibiting the least nephrotoxic effects
[2]; 24 hr treatment
  IC50: 5.47 mM

## CC1=NCCOCCOCCN=C(C)c2cccc1n2.O.O.[Cl-].[Cl-].[Mn+2] [Compound 2, [MnL2Cl2].2H2O]
[1]; 20 MHz
  r1 relaxivity: 3.58 s⁻¹ mM⁻¹
[1]; 60 MHz
  r1 relaxivity: 2.78 s⁻¹ mM⁻¹
[2]; 2 hr treatment
  IC50: 3.88 mM
[2]; 4 hr treatment
  IC50: 2.56 mM
[2]; 10 hr treatment
  IC50: 14.7 mM
[2]
  cytotoxicity: exhibited a slight reduction in toxicity
[2]; 24 hr treatment
  IC50: 0.68 mM
